Experiments:
[1] = system: Smad2/Smad3 phosphorylation; assay: Phospho-Smad2/3 Inhibition Assay (western blot), Panc-1; assay type: cell-based, human; details: at 10 μM, Panc-1 pancreatic cancer cell line; starred symbols = activation
Summary of the method: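 Panc-1 cells (KRas G12D), starved overnight in 0.5% FBS, treated 3 h at 37° C with compound at 10 μM final (0.3% DMSO) or serial dilutions for IC50, then stimulated with 10 ng/ml TGF-b1 for 1 h. Phospho-Smad2 (Ser465/467) and phospho-Smad3 (Ser423/425) detected by western blot.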

Akt phosphorylation = assay: Akt Phosphorylation Assay (western blot), Panc-1; assay type: cell-based, human; details: at 10 μM, * = activation
Summary of the method: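 Panc-1 (KRas G12D) cells were treated with compound at 10 μM final (0.3% DMSO) for 6 h at 37 °C, or with serial dilutions for IC50. Cells were either serum-starved overnight in 0.5% FBS and then stimulated with 1.5 ng/ml EGF for 15 min, or kept in 10% FBS without stimulation. Akt Ser473 phosphorylation in lysates was read by western blot.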

TNF-alpha = TNF-alpha Quantification Assay (ELISA), LPS-stimulated RAW 264.7; assay type: cell-based; details: Mus musculus, RAW264.7; at 10 μM; read-out: TNFα: % inh.

Row | SMILES | % inh of Smad2/3 phosphorylation in Panc-1 [1] | % inh of Akt phosphorylation in Panc-1 (Akt phosphorylation) | inhibition at 10 µM (TNF-alpha) [%]
1 | COCC1CCN(c2nc(-c3ccccn3)nn3cc(-c4ccn(C(C)C)n4)c(C)c23)C1 (racemic) [Compound 10, rac 6-(1-Isopropyl-1H-pyrazol-3-yl)-4-(3-(methoxymethyl)pyrrolidin-1-yl)-5-methyl-2-(pyridin-2-yl)pyrrolo[2,1-f][1,2,4]triazine] | A (A = 1-25% inhibition) | 0 (0% inhibition) | 0
2 | COC[C@@H]1CC[C@@H]1CNc1nc(-c2ccccn2)nn2cc(-c3ccn(C(C)C)n3)c(C)c12 (racemic) [Compound 11, rac 6-(1-Isopropyl-1H-pyrazol-3-yl)-N-(((1S,2R)-2-(methoxymethyl)cyclobutyl)methyl)-5-methyl-2-(pyridin-2-yl)pyrrolo[2,1-f][1,2,4]triazin-4-amine] | 0 (0 = 0% inhibition) | 0 (0% inhibition) | 0
3 | COC1CCCN(c2nc(-c3ccccn3)nn3cc(-c4ccn(C(C)C)n4)c(C)c23)C1 (racemic) [Compound 12, rac 6-(1-Isopropyl-1H-pyrazol-3-yl)-4-(3-methoxypiperidin-1-yl)-5-methyl-2-(pyridin-2-yl)pyrrolo[2,1-f][1,2,4]triazine] | 0 (0 = 0% inhibition) | 0 (0% inhibition) | 0
4 | CO[C@H]1CC[C@H](Nc2nc(-c3nccn3C)nn3cc(-c4ccn(C)n4)c(C(=O)NCC(F)(F)F)c23)C1 (racemic) [Compound 181, 4-(((1S,3S)-3-Methoxycyclopentyl)amino)-2-(1-methyl-1H-imidazol-2-yl)-6-(1-methyl-1H-pyrazol-3-yl)-N-(2,2,2-trifluoroethyl)pyrrolo[2,1-f][1,2,4]triazine-5-carboxamide] | A (A = 1-25% inhibition) | B* (26-49% activation) | 1 to 24
5 | CO[C@H]1CC[C@H](Nc2nc(-c3nccn3C)nn3cc(-c4ccn(C)n4)c(C(=O)NC4CC4)c23)C1 (racemic) [Compound 182, rac N-Cyclopropyl-4-(((1S,3S)-3-methoxycyclo-pentyl)amino)-2-(1-methyl-1H-imidazol-2-yl)-6-(1-methyl-1H-pyrazol-3-yl)pyrrolo[2,1-f][1,2,4]triazine-5-carboxamide] | A* (A* = 1-25% activation) | B* (26-49% activation) | 1 to 24
6 | COCCNC(=O)c1c(-c2ccn(C)n2)cn2nc(-c3nccn3C)nc(N[C@H]3CC[C@H](OC)C3)c12 (racemic) [Compound 183, rac 4-(((1S,3S)-3-Methoxycyclo-pentyl)amino)-N-(2-methoxyethyl)-2-(1-methyl-1H-imidazol-2-yl)-6-(1-methyl-1H-pyrazol-3-yl)pyrrolo[2,1-f][1,2,4]triazine-5-carboxamide] | D* (D* = 76-100% activation) | A (1-25% inhibition) | 25 to 49
7 | COCCCNC(=O)c1c(-c2ccn(C)n2)cn2nc(-c3nccn3C)nc(N[C@H]3CC[C@H](OC)C3)c12 (racemic) [Compound 184, rac 4-(((1S,3S)-3-methoxycyclo-pentyl)amino)-N-(3-methoxypropyl)-2-(1-methyl-1H-imidazol-2-yl)-6-(1-methyl-1H-pyrazol-3-yl)pyrrolo[2,1-f][1,2,4]triazine-5-carboxamide] | B* (B* = 26-45% activation) | A* (1-25% activation) | 25 to 49
8 | CO[C@H]1CC[C@H](Nc2nc(-c3nccn3C)nn3cc(-c4ccn(C)n4)c(C(=O)NCCN4CCOCC4)c23)C1 (racemic) [Compound 185, rac 4-(((1S,3S)-3-methoxycyclo-pentyl)amino)-2-(1-methyl-1H-imidazol-2-yl)-6-(1-methyl-1H-pyrazol-3-yl)-N-(2-morpholino-ethyl)pyrrolo[2,1-f][1,2,4]triazine-5-carboxamide] | B* (B* = 26-45% activation) | A (1-25% inhibition) | 25 to 49
9 | CO[C@@H]1C[C@H]1Nc1nc(-c2nccn2C)nn2cc(-c3cccnc3)c(-c3ccccc3)c12 (racemic) [Compound 190, N-((1R,2R)-2-Methoxycyclopropyl)-2-(1-methyl-1H-imidazol-2-yl)-5-phenyl-6-(pyridin-3-yl)pyrrolo[2,1-f][1,2,4]triazin-4-amine] | A (A = 1-25% inhibition) | D* (85-100% activation) | 1 to 24
10 | CO[C@H]1CC[C@@H](Nc2nc(-c3nccn3C)nn3cc(-c4cccnc4)c(-c4ccccc4)c23)C1 (racemic) [Compound 193, rac N-((1R,3S)-3-Methoxycyclopentyl)-2-(1-methyl-1H-imidazol-2-yl)-5-phenyl-6-(pyridin-3-yl)pyrrolo[2,1-f][1,2,4]triazin-4-amine] | A (A = 1-25% inhibition) | D* (85-100% activation) | 25 to 49
11 | CO[C@H]1CC[C@H](Nc2nc(-c3nccn3C)nn3cc(-c4cccnc4)c(-c4ccccc4)c23)C1 (racemic) [Compound 194, rac N-((1S,3S)-3-Methoxycyclopentyl)-2-(1-methyl-1H-imidazol-2-yl)-5-phenyl-6-(pyridin-3-yl)pyrrolo[2,1-f][1,2,4]triazin-4-amine] | A (A = 1-25% inhibition) | D* (85-100% activation) | 50 to 74
12 | CO[C@@H]1C[C@H]1Nc1nc(-c2nccn2C)nn2cc(-c3ccncc3)c(-c3ccccc3)c12 (racemic) [Compound 197, rac N-((1R,2R)-2-methoxycyclopropyl)-2-(1-methyl-1H-imidazol-2-yl)-5-phenyl-6-(pyridin-4-yl)pyrrolo[2,1-f][1,2,4]triazin-4-amine] | C (C = 46-75% inhibition) | A* (1-25% activation) | 25 to 49
13 | CO[C@H]1CC[C@@H](Nc2nc(-c3nccn3C)nn3cc(-c4ccncc4)c(-c4ccccc4)c23)C1 (racemic) [Compound 200, rac N-((1R,3S)-3-Methoxycyclopentyl)-2-(1-methyl-1H-imidazol-2-yl)-5-phenyl-6-(pyridin-4-yl)pyrrolo[2,1-f][1,2,4]triazin-4-amine] | A (A = 1-25% inhibition) | B (26-49% inhibition) | 1 to 24
14 | CO[C@H]1CC[C@H](Nc2nc(-c3nccn3C)nn3cc(-c4ccncc4)c(-c4ccccc4)c23)C1 (racemic) [Compound 201, rac N-((1S,3S)-3-Methoxycyclopentyl)-2-(1-methyl-1H-imidazol-2-yl)-5-phenyl-6-(pyridin-4-yl)pyrrolo[2,1-f][1,2,4]triazin-4-amine] | A (A = 1-25% inhibition) | B (26-49% inhibition) | 50 to 74
15 | COc1cc(Nc2nc(-c3ccccn3)nn3cc(-c4ccn(C(C)C)n4)c(C)c23)ncn1 [Compound 13, 6-(1-Isopropyl-1H-pyrazol-3-yl)-N-(6-methoxypyrimidin-4-yl)-5-methyl-2-(pyridin-2-yl)pyrrolo[2,1-f][1,2,4]triazin-4-amine] | 0 (0 = 0% inhibition) | 0 (0% inhibition) | 0
16 | COc1cccc(Nc2nc(-c3ccccn3)nn3cc(-c4ccn(C(C)C)n4)c(C)c23)n1 [Compound 14, 6-(1-Isopropyl-1H-pyrazol-3-yl)-N-(6-methoxypyridin-2-yl)-5-methyl-2-(pyridin-2-yl)pyrrolo[2,1-f][1,2,4]triazin-4-amine] | 0 (0 = 0% inhibition) | 0 (0% inhibition) | 0
17 | COc1cccc(-c2cn3nc(-c4nccn4C)nc(O)c3c2C)c1Cl [Compound 15, 6-(2-Chloro-3-methoxyphenyl)-5-methyl-2-(1-methyl-1H-imidazol-2-yl)pyrrolo[2,1-f][1,2,4]triazin-4-ol] | 0 (0 = 0% inhibition) | 0 (0% inhibition) | 0
18 | COCCNc1nc(-c2nccn2C)nn2cc(-c3cccc(OC)c3Cl)c(C)c12 [Compound 16, 6-(2-Chloro-3-methoxyphenyl)-N-(2-methoxyethyl)-5-methyl-2-(1-methyl-1H-imidazol-2-yl)pyrrolo[2,1-f][1,2,4]triazin-4-amine] | 0 (0 = 0% inhibition) | 0 (0% inhibition) | 0
19 | CO[C@H]1C[C@H](Nc2nc(-c3nccn3C)nn3cc(-c4cccc(OCCN)c4)c(-c4ccccc4)c23)C1 [Compound 205, 6-(3-(2-Aminoethoxy)phenyl)-N-((1r,3r)-3-methoxycyclobutyl)-2-(1-methyl-1H-imidazol-2-yl)-5-phenylpyrrolo[2,1-f][1,2,4]triazin-4-amine] | D (D = 76-100% inhibition) | C* (46-84% activation) | 

Reference: patent US12459951B2, “Compounds that interact with RAS superfamily proteins for treatment of cancers, inflammatory diseases, rasopathies, and fibrotic disease” (SHY Therapeutics, LLC, priority 2022, dated 2025)
